Laboratory results reported in patent US20090048155A1 (priority 2007, published 2009).

What was measured:
Y. pestis CO99pgm- [1] = test system: Y. pestis CO99pgm-; parameters: species or system Sprague-Dawley rats; settings: rat, in vivo
Y. pestis CO99pgm- [2] = test system: Y. pestis CO99pgm-; parameters: species or system Sprague-Dawley rats; settings: rat, in vivo; remark: listed apart in the source

Question: How did the 6-day survival rate (Y. pestis CO99pgm- [1]) turn out when `O=C(O)c1cn(C2CC2)c2cc(N3CCNCC3)c(F)cc2c1=O` [Cipro, ciprofloxacin] was run?
Answer: 100%

Question: And the “Median Survival Time” value (Y. pestis CO99pgm- [1])?
Answer: 84 h

Question: What about the Survival (Y. pestis CO99pgm- [1]) of the same molecule?
Answer: 28%

Question: What about the “leukocyte infiltration index (LII)” value (Y. pestis CO99pgm- [2]) of the same molecule?
Answer: did not significantly improve

Question: And the lung edema (Y. pestis CO99pgm- [2])?
Answer: did not significantly improve

Question: What about the “lung scores (combined interstitial and alveolar edema and hemorrhage and LII scores)” value (Y. pestis CO99pgm- [2]) of the same molecule?
Answer: did not significantly improve
